This passage reports MIC90 results from patent US9309238B2, “Imidazo [1,2-a]pyridine compounds, synthesis thereof, and methods of using same” (priority 2009, dated 2016).

In brackets after ≈: the same amount, converted by molar mass. Like-named read-outs stand apart in the source and are kept apart here.

Holding throughout (assay): microbe, parasite or virus in culture
Experiment [1] deals with rINH (Isoniazid-resistant TB strain). It counts as cell-based, Mycobacterium tuberculosis.
In experiment [2] the test system is rRMP (Rifampicin-resistant TB strain). It counts as cell-based, Mycobacterium tuberculosis.
The subject of experiment [3] is rKM (Kanamycin-resistant TB strain). It counts as cell-based, Mycobacterium tuberculosis.
Experiment [4] deals with rSM (Streptomycin-resistant TB strain). It counts as cell-based, Mycobacterium tuberculosis.
Experiment [5] has as its system extreme drug-resistant TB strain HRESPOCTh. It counts as cell-based. To be noted: Mycobacterium tuberculosis.
Experiment [6] has as its system MDR-TB strain resistant to HRESP. It counts as cell-based. The conditions noted are these: Mycobacterium tuberculosis.
The subject of experiment [7] is MDR-TB strain resistant to HREKP. It counts as cell-based. The conditions noted are these: Mycobacterium tuberculosis.
Experiment [8] concerns MDR-TB strain resistant to HRERb* (column 5). It counts as cell-based. The conditions noted are these: Mycobacterium tuberculosis.
Experiment [9] concerns MDR-TB strain resistant to HRERb* (column 7). It counts as cell-based. The conditions noted are these: Mycobacterium tuberculosis.
For experiment [10], the system named is MDR-TB strain resistant to HREZSKPTh. It counts as cell-based. To be noted: Mycobacterium tuberculosis.
Experiment [11] relates to MDR-TB strain resistant to HREZSP. It counts as cell-based. The conditions noted are these: Mycobacterium tuberculosis.
Experiment [12] concerns MDR-TB strain resistant to HREZRbTh. It counts as cell-based. To be noted: Mycobacterium tuberculosis.
Experiment [13] has as its system MDR-TB strain resistant to HRERb* (column 8). It counts as cell-based. To be noted: Mycobacterium tuberculosis.
In experiment [14] the test system is extreme drug-resistant TB strain HRESPO. It counts as cell-based. To be noted: Mycobacterium tuberculosis.
Experiment [15] relates to extreme drug-resistant TB strain HREPKOTh. It counts as cell-based. The conditions noted are these: Mycobacterium tuberculosis.
Experiment [16] concerns MDR-TB strain resistant to HCPTh. It counts as cell-based. To be noted: Mycobacterium tuberculosis.
The mark [17] stands for this setting: single drug resistant strain rINH.
[18] abbreviates: single drug resistant strain rRMP.
[19] abbreviates: single drug resistant strain rKM.

Take `Cc1ccn2c(C(=O)NCc3cccc(OC(C)C)c3)c(C)nc2c1` [ND-9872]: the MIC90 in experiment [1] (setting [17]) was found to be 0.28 µM (≈ 0.0945 µg/mL); in experiment [2] (setting [18]), 0.23 µM (≈ 0.0776 µg/mL); in experiment [3] (setting [19]) it was 0.89 µM (≈ 0.3 µg/mL); in [4], 0.87 µM (≈ 0.294 µg/mL).

On to `Cc1ccn2c(C(=O)NCc3cccc(F)c3)c(C)nc2c1` [ND-9361], for which the MIC90 in [5] was 0.02 µg/mL (≈ 0.0673 µM); in experiment [6], 0.078 µg/mL (≈ 0.262 µM); in experiment [7] it was 0.078 µg/mL (≈ 0.262 µM); in experiment [8], 0.039 µg/mL (≈ 0.131 µM); in [9] it was 0.01 µg/mL (≈ 0.0336 µM); in experiment [10] it was 0.019 µg/mL (≈ 0.0639 µM). Moreover, the MIC90 in [11] is 0.019 µg/mL (≈ 0.0639 µM); in [12], 0.019 µg/mL (≈ 0.0639 µM); in experiment [13], 0.078 µg/mL (≈ 0.262 µM); in experiment [14] it was 0.01 µg/mL (≈ 0.0336 µM); in [15], 0.01 µg/mL (≈ 0.0336 µM).

Turning to `COc1c(N2C[C@@H]3CCCN[C@@H]3C2)c(F)cc2c(=O)c(C(=O)O)cn(C3CC3)c12` [Moxifloxacin, reference compound], the MIC90 in experiment [1] (Mycobacterium tuberculosis) amounted to 0.12 µM (≈ 0.0482 µg/mL); in [2] (Mycobacterium tuberculosis) it was 0.1 µM (≈ 0.0401 µg/mL); in [3] (Mycobacterium tuberculosis) it was 0.24 µM (≈ 0.0963 µg/mL); in experiment [4] (Mycobacterium tuberculosis) it was 0.15 µM (≈ 0.0602 µg/mL).

For `NNC(=O)c1ccncc1` [INH, Isoniazid, reference compound], the MIC90 was greater than 8 µM in experiment [1] (Mycobacterium tuberculosis) and 0.23 µM (≈ 0.0315 µg/mL) in [2] (Mycobacterium tuberculosis).

With `Cc1ccn2c(C(=O)NCc3ccccc3)c(C)nc2c1` [ND-8454, N-benzyl-2,7-dimethylimidazo[1,2-a]pyridine-3-carboxamide], the MIC90 in experiment [5] amounted to 0.02 µg/mL (≈ 0.0716 µM); in [6], 0.625 µg/mL (≈ 2.24 µM); in [7], 0.078 µg/mL (≈ 0.279 µM); in experiment [8], 0.039 µg/mL (≈ 0.14 µM); in experiment [9], 0.039 µg/mL (≈ 0.14 µM); in experiment [10], 0.019 µg/mL (≈ 0.068 µM). The MIC90 is 0.312 µg/mL (≈ 1.12 µM) in experiment [11]; 0.039 µg/mL (≈ 0.14 µM) in experiment [12]; 0.33 µM (≈ 0.0922 µg/mL) in [1] (Mycobacterium tuberculosis); 0.078 µg/mL (≈ 0.279 µM) in experiment [13]; 0.313 µg/mL (≈ 1.12 µM) in experiment [16]; 0.28 µM (≈ 0.0782 µg/mL) in [2] (Mycobacterium tuberculosis). Besides, the MIC90 is 0.039 µg/mL (≈ 0.14 µM) in [14], 1.07 µM (≈ 0.299 µg/mL) in experiment [3] (Mycobacterium tuberculosis), 1.02 µM (≈ 0.285 µg/mL) in experiment [4] (Mycobacterium tuberculosis) and 0.02 µg/mL (≈ 0.0716 µM) in experiment [15].

As for `Cc1ccn2c(C(=O)NCc3ccc(Oc4ccc(F)cc4)cc3)c(C)nc2c1` [ND-9758], the MIC90 in experiment [1] (setting [17]) was 0.003 µM (≈ 0.00117 µg/mL); in experiment [2] (setting [18]) it was less than 0.002 µM; in experiment [3] (setting [19]) it was 0.01 µM (≈ 0.00389 µg/mL); in experiment [4], 0.01 µM (≈ 0.00389 µg/mL).

For the compound `Cc1ccn2c(C(=O)NCc3ncc(C(F)(F)F)cc3Cl)c(C)nc2c1` [ND-9902], the MIC90 in experiment [1] (setting [17]) amounted to 1.10 µM (≈ 0.421 µg/mL); in [2] (setting [18]) it was 0.74 µM (≈ 0.283 µg/mL); in [3] (setting [19]) it was 2.96 µM (≈ 1.13 µg/mL); in experiment [4] it was 2.95 µM (≈ 1.13 µg/mL).

As to `Cc1ccc2nc(C)c(C(=O)NCc3ccc(S(C)(=O)=O)cc3)n2c1` [ND-9965], the MIC90 in experiment [1] (setting [17]) turned out to be 0.57 µM (≈ 0.204 µg/mL); in [2] (setting [18]) it was 0.54 µM (≈ 0.193 µg/mL); in experiment [3] (setting [19]), 1.98 µM (≈ 0.708 µg/mL); in experiment [4] it was 2.31 µM (≈ 0.826 µg/mL).

Regarding `CO[C@H]1/C=C/O[C@@]2(C)Oc3c(C)c(O)c4c(O)c(c(/C=N/N5CCN(C)CC5)c(O)c4c3C2=O)NC(=O)/C(C)=C\C=C\[C@H](C)[C@H](O)[C@@H](C)[C@@H](O)[C@@H](C)[C@H](OC(C)=O)[C@@H]1C` [RMP, Rifampicin, reference compound], the MIC90 is 0.01 µM (≈ 0.00823 µg/mL) in experiment [1] (Mycobacterium tuberculosis) and greater than 1 µM in [2] (Mycobacterium tuberculosis).
